From US9072729B2, “Method for treating fibrosis and cancer with imidazolium and imidazolinium compounds” (Agency for Science, Technology and Research, priority 2008, dated 2015)

Tests used:
[1] = test system: col1a1, fibronectin, GFAP, SMAA, TGF-β1, TGFβ RI protein expression; assay: Western blotting of fibrotic marker proteins in HSC T6 cells; type: cell-based, rat; conditions: DBZIM 100 μM, TDBZIM 50 μM, 48 h
Method: FIG. 8. […] The target proteins were recognized by the respective antibodies, and visualized by the ECL method. The membrane was stripped and re-probed for α-tubulin as the loading control. FIG. 13. […] DPIM (2 mM), EGCG (25 μM) and DBZIM (100 μM) were dissolved in H2O. Alpha-tubulin was used as the loading control. Densitometric measurement of protein band intensity was normalized against the respective vehicle control. (B) Relative densitometric quantification of protein band intensity. The vehicle treated sample was normalized to 1. Protein extracts were prepared by lysing a cell pellet in 10 volumes of boiled 1% sodium dodecyl sulfate (SDS) (90-95° C.) for 10 min for GFAP, or using NE-PER nuclear and cytoplasmic extraction reagents from Pierce (IL, USA) for nuclear proteins, or RIPA (Pierce, Ill., USA) for SMAA, fibronectin, collagen αI(I), TGF-β1 and TGFβ RI. Protein content was quantified using a BCA kit (Pierce, Ill., USA). 15 μg of total protein were resolved in 4-12% gradient SDS/polyacrylamide gel electrophoresis (PAGE) gel, and transferred to a nitrocellular membrane. The membrane was then probed with primary antibodies against GFAP (Dako, Denmark), SMAA (Sigma, USA), procollagen αI(I), fibronectin, c-Jun, c-Fos, JunB, JunD, […] Cruz Biotechnology, CA, USA), NF-κB P65, TGF-β1 and TGFβ RI (Abeam, UK), and detected by horseradish peroxidase-conjugated secondary antibody (Santa Cruz Biotechnology, CA, USA). […] Protein bands were recorded on X-ray film by reacting with ECL chemiluminescence reagents (Amersham Biosciences, NJ, USA). Alpha-tubulin (Abeam, UK) was used as the loading control for total protein, and Tata binding protein (TBP) (Abeam, UK) was used as the loading control for nuclear protein.

[2] = test system: NF-κB P65; assay: Western blotting of nuclear NF-κB and AP-1 in HSC T6 cells; type: cell-based, rat; conditions: DBZIM 100 μM, TDBZIM 50 μM, 48 h
Method: FIG. 11. Western blotting of NF-κB and AP-1 (c-Fos, JunD and Fra-1) protein expressions in HSC T6 cells treated with DBZIM (100 μM) and TDBZIM (50 μM) for 48 h. 15 μg of nuclear protein was resolved in 4-12% gradient PAGE-SDS gel. The target proteins were recognized by the respective antibodies, and visualized by the ECL method. The membrane was stripped and probed for the Tata binding protein TBP used as the loading control.
Protein extracts were prepared by lysing a cell pellet in 10 volumes of boiled 1% sodium dodecyl sulfate (SDS) (90-95° C.) for 10 min for GFAP, or using NE-PER nuclear and cytoplasmic extraction reagents from Pierce (IL, USA) for nuclear proteins, or RIPA (Pierce, Ill., USA) for SMAA, fibronectin, collagen αI(I), TGF-β1 and TGFβ RI. Protein content was quantified using a BCA kit (Pierce, Ill., USA). […] The membrane was then probed with primary antibodies against GFAP (Dako, Denmark), SMAA (Sigma, USA), procollagen αI(I), fibronectin, c-Jun, c-Fos, JunB, JunD, Fra-1, Fra-2 (Santa Cruz Biotechnology, CA, USA), NF-κB P65, TGF-β1 and TGFβ RI (Abeam, UK), and detected by horseradish peroxidase-conjugated secondary antibody (Santa Cruz Biotechnology, CA, USA). […] Protein bands were recorded on X-ray film by reacting with ECL chemiluminescence reagents (Amersham Biosciences, NJ, USA). […]

[3] = test system: GST; assay: Glutathione S-transferase (GST) assay in treated cells; type: cell-based, rat; conditions: for enhancement of GST activity: 48 h
Method: FIG. 4. Effect of DBZIM and TDBZIM on GPx, CAT, SOD and GST. DBZIM affected (a) GPx activity and (c) CAT activity in a dosage-dependent manner. TDBZIM suppressed (b) GPx activity and (d) CAT activity. (e) DBZIM and (f) TDBZIM had little effect on SOD activity. (g) DBZIM induced GST activity. HSC T6 cells were treated with compounds of various concentrations for 48 h, and homogenized by sonication (60% frequency for 30 s) in PBS (pH 7.4, 1 mM of EDTA) for GPx, GST and CAT assays, or in 20 mM of HEPES buffer containing 1 mM of EGTA, 210 mM of mannitol and 70 mM of sucrose (pH 7.2) for SOD assay. Enzyme activity was normalized against total protein. DBZIM was dissolved in DMSO, and TDBZIM was dissolved in H2O. The data were presented as mean and SEM, N=6, *^aP<0.05, *^bP<0.01, *^cP<0.005, and *^dP<0.0005, when compared to the vehicle control.
The activity of phase II anti-oxidant enzyme, GST, was assayed using a kit from Cayman Chemical. Protein samples were harvested in PBS buffer containing 1 mM of EDTA, and the protein concentration was determined by BCA assay. Total GST (cytosolic and microsomal) activity was assayed by measuring the conjugation of 1-chloro-2,4-dinitobenzene (CDNB) with reduced GSH, and monitored by an increase in absorbance at 340 nm. GST activity was expressed as nmol/min/mg protein.

[4] = test system: HLE cells; assay: Growth inhibition assay (MTT), HLE; type: cell-based, human
Method: The effect of IMSs (IBN-15, IBN-19, IBN-24, IBN-25 and IBN-32) on the proliferative properties of p53 mutant cell line HLE was examined. The cytotoxicity activity and proliferation inhibition of IMSs in tumor cells were measured by MTT. […] The control experiments with DMSO alone (0.05% v/v) had no effect on cell proliferation. […] (Table 4) Microscopic observation on the cell cultures visually confirmed the inhibition on cell proliferation by IMSs. (FIG. 35)

Question: What does the source list for “1,3,5-tris(4-methyl-imidazolium)-linked cyclophane.3Br [TDBZIM]”?
Answer: SMAA protein expression [1]: enhanced; procollagen αI(I) and fibronectin protein expression [1]: attenuated procollagen αI(I) and fibronectin significantly; nuclear NF-κB P65 (active form) protein [2]: significantly attenuated

Question: Which results are given for `[Br-].c1ccc(Cn2cc[n+](Cc3ccccc3)c2)cc1` [DBZIM, 1,3-bisbenzylimidazolium bromide]?
Answer: enhancement of GST activity ([3]; 100 μM): 22%; enhancement of GST activity ([3]; 300 μM): 32%; SMAA protein expression [1]: suppressed; procollagen αI(I) and fibronectin protein expression [1]: attenuated procollagen αI(I) and fibronectin significantly; nuclear NF-κB P65 (active form) protein [2]: significantly attenuated

Question: For `CC(=O)Oc1ccc(C[n+]2ccn(Cc3ccccc3)c2C)cc1.[Cl-]` [IBN-19, 1-benzyl-3-(4-acetate-benzyl)-2-methyl-imidazolium chloride], which IC50 ([4]; 72 h) is on record?
Answer: 90 µM

Question: What about the IC50 ([4]; 120 h) of the same compound?
Answer: 28 µM

Question: With `Cc1ccc(C[n+]2ccn(Cc3ccccc3)c2)cc1.[Cl-]` [IBN-24, 1-benzyl-3-(4-methylbenzyl)-imidazolium chloride] as the compound, how does the IC50 ([4]; Homo sapiens, 72 h) read?
Answer: 90 µM

Question: And the IC50 ([4]; Homo sapiens, 120 h)?
Answer: 30 µM

Question: “(−)-Epigallocatechin gallate [EGCG, reference compound]” was tested. Which “effect on GST activity (references)” value ([3]; EGCG, NAC) did it give?
Answer: did not have much affect
